In one assay the target is T1, visual cycle isomerase (Bovine RPE microsome membranes) (Bos taurus, UniProt Q28175).
T1 construct: Bovine Retinal Pigment Epithelium (RPE) microsome membranes were the source of a visual cycle isomerase; from tissue; host or cells: bovine retinal pigment epithelium microsome membranes
T1 sequence (Q28175 2-533 limits assumed): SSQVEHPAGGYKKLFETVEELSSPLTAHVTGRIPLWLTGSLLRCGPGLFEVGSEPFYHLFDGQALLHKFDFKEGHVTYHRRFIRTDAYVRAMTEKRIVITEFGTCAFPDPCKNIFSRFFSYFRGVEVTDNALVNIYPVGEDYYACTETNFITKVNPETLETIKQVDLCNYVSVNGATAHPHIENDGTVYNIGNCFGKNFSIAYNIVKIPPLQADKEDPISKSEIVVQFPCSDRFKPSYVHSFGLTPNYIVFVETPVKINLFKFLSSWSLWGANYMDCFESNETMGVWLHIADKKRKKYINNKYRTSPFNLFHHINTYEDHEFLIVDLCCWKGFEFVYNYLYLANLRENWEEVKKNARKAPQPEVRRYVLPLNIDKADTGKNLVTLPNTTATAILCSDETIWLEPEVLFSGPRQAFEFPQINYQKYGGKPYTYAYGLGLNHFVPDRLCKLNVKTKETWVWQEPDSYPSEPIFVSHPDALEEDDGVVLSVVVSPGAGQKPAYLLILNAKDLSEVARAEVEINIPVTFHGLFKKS
Put plainly: In vitro isomerase inhibition assay, bovine RPE microsome membranes. Type of assay: biochemical. The conditions noted are these: bovine RPE microsomes; 11-cis retinol formation. On the procedure:
The capability of alkynyl phenyl-linked amine derivative compounds to inhibit the activity of a visual cycle isomerase was determined.
Bovine Retinal Pigment Epithelium (RPE) microsome membranes were the source of a visual cycle isomerase.
Crude RPE microsome extracts were thawed in a 37° C. water bath, and then immediately placed on ice. 50 ml crude RPE microsomes were placed into a 50 ml Teflon-glass homogenizer (Fisher Scientific, catalog no. 0841416M) on ice, powered by a hand-held DeWalt drill, and homogenized ten times up and down on ice under maximum speed. This process was repeated until the crude RPE microsome solution was homogenized. The homogenate was then subjected to centrifugation (50.2 Ti rotor (Beckman, Fullerton, Calif.), 13,000 RPM; 15360 Rcf) for 15 minutes at 4° C. The supernatant was collected and subjected to centrifugation at 42,000 RPM (160,000 Rcf; 50.2 Ti rotor) for 1 hour at 4° C. The supernatant was removed, and the pellets were suspended in 12 ml (final volume) cold 10 mM MOPS buffer, pH 7.0. The resuspended RPE membranes in 5 ml aliquots were homogenized in a glass-to-glass homogenizer (Fisher Scientific, catalog no. K885500-0021) to high homogeneity. Protein concentration was quantified using the BCA protein assay according to the manufacturer's protocol (Pierce, Rockford, Ill.). The homogenized RPE preparations were stored at −80° C.
Recombinant human apo cellular retinaldehyde-binding protein (CRALBP) was cloned and expressed according to standard methods in the molecular biology art (see Crabb et al., Protein Science 7:746-57 (1998); Crabb et al., J. Biol. Chem. 263:18688-92 (1988)). Briefly, total RNA was prepared from confluent ARPE19 cells (American Type Culture Collection, Manassas, Va.), cDNA was synthesized using an oligo(dT)12-18 primer, and then DNA encoding CRALBP was amplified by two sequential polymerase chain reactions (see Crabb et al., J. Biol. Chem. 263:18688-92 (1988); Intres, et al., J. Biol. Chem. 269:25411-18 (1994); GenBank Accession No. L34219.1). The PCR product was sub-cloned into pTrcHis2-TOPO TA vector according to the manufacturer's protocol (Invitrogen Inc., Carlsbad, Calif.; catalog no. K4400-01), and then the sequence was confirmed according to standard nucleotide sequencing techniques. Recombinant 6×His-tagged human CRALBP was expressed in One Shot TOP 10 chemically competent E. coli cells (Invitrogen), and the recombinant polypeptide was isolated from E. coli cell lysates by nickel affinity chromatography using nickel (Ni) Sepharose XK16-20 columns for HPLC (Amersham Bioscience, Pittsburgh, Pa.; catalog no. 17-5268-02). The purified 6×His-tagged human CRALBP was dialyzed against 10 mM bis-tris-Propane (BTP) and analyzed by SDS-PAGE. The molecular weight of the recombinant human CRALBP was approximately 39 kDal.
Alkkynyl phenyl-linked amine derivative compounds and control compounds were reconstituted in ethanol to 0.1 M. Ten-fold serial dilutions (10^−2, 10^−3, 10^−4, 10^−5, 10^−6 M) in ethanol of each compound were prepared for analysis in the isomerase assay.
The isomerase assay was performed in 10 mM bis-tris-propane (BTP) buffer, pH 7.5, 0.5% BSA (diluted in BTP buffer), 1 mM sodium pyrophosphate, 20 μM all-trans retinol (in ethanol), and 6 μM apo-CRALBP. The test compounds (2 μl) (final […] dilution of serial dilution stocks) were added to the above reaction mixture to which RPE microsomes were added. The same volume of ethanol was added to the control reaction (absence of test compound). Bovine RPE microsomes (9 μl) (see above) were then added, and the mixtures transferred to 37° C. to initiate the reaction (total volume=150 μl). The reactions were stopped after 30 minutes by adding methanol (300 μl). Heptane was added (300 μl) and mixed into the reaction mixture by pipetting. Retinoid was extracted by agitating the reaction mixtures, followed by centrifugation in a microcentrifuge. […]
What is called IC50 is the midpoint of a concentration-inhibition curve. Low readings indicate greater potency, high ones weaker potency. Regarding `NCCCc1cccc(C#CCCCCO)c1` [Example 68, 6-(3-(3-Aminopropyl)phenyl)hex-5-yn-1-ol], the IC50 was at most 1 µM.

On to `COCCCC#Cc1cccc(CCCN)c1` [Example 70, 3-(3-(5-Methoxypent-1-ynyl)phenyl)propan-1-amine], for which the half-inhibitory concentration (IC50) was at most 1 µM.

The compound `NCCCc1cccc(C#CCCc2ccccc2)c1` [Example 72, 3-(3-(4-Phenylbut-1-ynyl)phenyl)propan-1-amine] returned an IC50 of at most 1 µM.

`CC(C)CC#Cc1cccc(OCCN)c1` [Example 73, 2-(3-(4-Methylpent-1-ynyl)phenoxy)ethanamine]: the IC50 was at most 1 µM.

In turn, `NCCOc1cccc(C#CCc2ccccc2)c1` [Example 75, 2-(3-(3-phenylprop-1-ynyl)phenoxy)ethanamine] registered an IC50 of at most 1 µM. As to `NCCOc1cccc(C#CCCO)c1` [Example 76, 4-(3-(2-Aminoethoxy)phenyl)but-3-yn-1-ol], the IC50 was at most 100 µM. In turn, `CCCCCC#Cc1cccc(OCCN)c1` [Example 77, 2-(3-(hept-1-ynyl)phenoxy)ethanamine] registered an IC50 of at most 1 µM. Compound `NCCCc1cccc(C#Cc2cccc3ccccc23)c1` [Example 82, 3-(3-(Naphthalen-1-ylethynyl)phenyl)propan-1-amine] returned a half-maximal inhibitory concentration (IC50) of at most 100 µM. The compound `Cc1ccccc1C#Cc1cccc(CCCN)c1` [Example 83, 3-(3-(o-Tolylethynyl)phenyl)propan-1-amine] had an IC50 of at most 10 µM. Turning to `Cc1ccc(C#Cc2cccc(CCCN)c2)cc1` [Example 84, 3-(3-(p-Tolylethynyl)phenyl)propan-1-amine], the IC50 is at most 100 µM. The compound `NCCOc1cccc(C#CCC2CCCC2)c1` [Example 85, 2-(3-(3-Cyclopentylprop-1-ynyl)phenoxy)ethanamine] came in with an IC50 of at most 1 µM. Regarding `NCCOc1cccc(C#CCCc2ccccc2)c1` [Example 86, 2-(3-(4-Phenylbut-1-ynyl)phenoxy)ethanamine], the half-inhibitory concentration (IC50) is at most 1 µM. Turning to `Cc1cccc(C#Cc2cccc(CCCN)c2)c1` [Example 87, 3-(3-(m-Tolylethynyl)phenyl)propan-1-amine], the IC50 is at most 100 µM.

For `N#Cc1cccc(C#Cc2cccc(OCCN)c2)c1` [Example 88, 3-((3-(2-Aminoethoxy)phenyl)ethynyl)benzonitrile], the IC50 was at most 10 µM. `NCCCc1cccc(C#Cc2ccccc2O)c1` [Example 89, 2-((3-(3-Aminopropyl)phenyl)ethynyl)phenol] came in with a half-maximal inhibitory concentration (IC50) of at most 10 µM.

In the case of `N#Cc1cccc(C#Cc2cccc(CCCN)c2)c1` [Example 90, 3-((3-(3-Aminopropyl)phenyl)ethynyl)benzonitrile], the concentration for half-maximal inhibition (IC50) was at most 10 µM. As to `COc1ccccc1C#Cc1cccc(OCCN)c1` [Example 91, 2-(3-((2-Methoxyphenyl)Ethynyl)Phenoxy)Ethanamine], the IC50 was at most 1 µM. On to `NCCCc1cccc(C#Cc2cccc(C(F)(F)F)c2)c1` [Example 92, 3-(3-((3-(Trifluoromethyl)Phenyl)Ethynyl)Phenyl)Propan-1-Amine], for which the IC50 was at most 100 µM. In turn, `CC(C)(C)c1cc(C#Cc2cccc(CCCN)c2)cc(C(C)(C)C)c1` [Example 93, 3-(3-((3,5-Di-tert-butylphenyl)ethynyl)phenyl)propan-1-amine] showed an IC50 of at most 1000 µM. As to `CSc1ccc(C#Cc2cccc(CCCN)c2)cc1` [Example 94, 3-(3-((4-(Methylthio)phenyl)ethynyl)phenyl)propan-1-amine], the IC50 was at most 100 µM.

`NCCOc1cccc(C#Cc2cccs2)c1` [Example 95, 2-(3-(Thiophen-2-ylethynyl)phenoxy)ethanamine] showed an IC50 of at most 1 µM. As for `NCCOc1cccc(C#Cc2ccsc2)c1` [Example 96, 2-(3-(Thiophen-3-ylethynyl)phenoxy)ethanamine], the IC50 is at most 10 µM. On to `NCCOc1cccc(C#Cc2ccncc2)c1` [Example 97, 2-(3-(Pyridin-4-ylethynyl)phenoxy)ethanamine], for which the half-inhibitory concentration (IC50) is at most 10 µM. `NCCOc1cccc(C#Cc2ccccn2)c1` [Example 98, 2-(3-(Pyridin-2-ylethynyl)phenoxy)ethanamine]: the IC50 was at most 10 µM. As to `CCCCCC#Cc1cccc(CCCN)c1` [Example 102, 3-(3-(Hept-1-ynyl)phenyl)propan-1-amine], the IC50 was at most 1 µM. Regarding `CCCC(O)(C#Cc1cccc(CCN)c1)CCC` [Example 141, 4-((3-(2-Aminoethyl)phenyl)ethynyl)heptan-4-ol], the IC50 is at most 1 µM.

The subject of the next assay is retinoid nuclear receptors (RAR and RXR). Put plainly: Retinoid nuclear receptor activity, RAR and RXR together. Type of assay: cell-based. To be noted: reference agonists.
Turning to `C/C(=C\c1ccc(C(=O)O)cc1)c1ccc2c(c1)C(C)(C)CCC2(C)C` [TTNPB, E-4-[2-(5,6,7,8-tetrahydro-5,5,8,8-tetramethyl-2-naphthylenyl)-1-propenyl]benzoic acid], the “activation of the RXRα, RARα, RARβ and RARγ receptors” value is given as “activated”.

On to `CC1=C(/C=C/C(C)=C/C=C/C(C)=C/C(=O)O)C(C)(C)CCC1` [at-RA, all-trans-retinoic acid], for which the “activation of the RXRα, RARα, RARβ and RARγ receptors” value was “activated”.

The values are drawn from patent publication US8492589B2, “Alkynyl phenyl derivative compounds for treating ophthalmic diseases and disorders” (Acucela Inc., priority 2007, dated 2013).
